According to patent publication US20250387371A1, “COMPOSITIONS AND FORMULATION METHODS FOR SUSTAINED LOCAL RELEASE OF ANTIFIBROTICS” (THE HOPKINS UNIVERISTY, priority 2022, published 2025):
Values after ≈ are worked out from the molar mass of the structure shown. Like-named read-outs stand apart in the source and are kept apart here.

Columns and labels:
[1] = system: small intestine fibrosis mouse model; assay: Mouse intestine transplant fibrosis model; assay type: in vivo; conditions: three times daily oral 100 mg/kg for 7 days
Method: An intestine transplantation model (FIG. 6) that was previously used to validate the antifibrotic efficacy of oral pirfenidone was employed. Meier et al., 2016. Sul-NC at a dose of 50 mg/kg or 150 mg/kg was given as a single injection at the site of the transplant and compared to oral pirfenidone at the dose previously described to be effective in the model, three times daily oral dosing with 100 mg/kg. […] Again, there was a striking difference between the dose and frequency of administration when comparing pirfenidone (three times daily dosing, total dose 2,100 mg/kg) vs Sul-NC (single dose, 50 mg/kg).
5-8 week old male C57BL/6J mice were utilized in an intestine transplantation model with minor modifications (FIG. 6). Meier et al., 2016. Briefly, a 6-cm segment of small intestine proximal to the ileocecal valve was excised from a donor mouse in a sterilized biosafety cabinet. The tissue was washed with cold saline 3 times, and carefully cut into 1 cm segments that were placed in a petri dish with cold saline. The back neck of the recipient mice was shaved. […] Four representative images were taken for each tissue to quantify the collagen thickness. For each image, 10 different areas were measured by a masked observer with image J Fiji (NIH, Bethesda, MD). Data were analyzed with GraphPad Prism 9 (San Diego, CA, USA).

[2] = system: human primary colonic fibroblasts (CCD-18Co) activated with TGF-β; assay: High throughput microscopy-based drug screening (α-SMA and COL1A1 immunocytochemistry); assay type: cell-based; conditions: TGF-β-activated CCD-18Co, 4 mM
Description: To identify potential antifibrotic agents, a high-throughput microscope-based drug screening approach using human primary colonic fibroblasts (CCD-18Co) activated with transforming growth factor-β (TGF-β) was used. A panel of 1,586 FDA-approved small molecule drugs were then screened for their ability to reduce expression of α-SMA and type 1 collagen (COL1A1) as assessed by fluorescent immunocytochemistry. Based on its known antifibrotic effects, pirfenidone was included in this screen and found effective at a dose of 4 mM (FIG. 1A).
Human primary colonic fibroblasts (CCD-18Co) were seeded in 96 well flat bottom plate. Twenty-four hours later, cells were washed and starved with alpha-MEM medium without FBS for 24 h. The cells were then washed and the media was replaced with alpha-MEM supplemented with 10% FBS containing 5 ng/ml TGF-β and activated for 48 h. The cells were then washed again and fresh medium containing 5 ng/ml TGF-β and 10 μM of a drug from a library of 1,586 FDA approved small molecules was applied to the cells. After 4 days, the cells were fixed with 10% neutral formalin for 15 min and permeabilized with 0.5% Triton X-100 in PBS. […] Images were analyzed with Image J2 Fiji (NIH, Bethesda, MD) to determine the drug treatment efficacy as assessed by reduction in the intensity of α-SMA and collagen staining per cell. […]

[3] = system: LX2 cells; assay: RT-PCR of α-SMA (ACTA2) expression in activated LX2 cells; assay type: cell-based, human; conditions: activated LX-2
Method: (§1) RNA was extracted using TRIzol Reagent as previously described. Li et al., 2017. RNAs were reverse transcribed into cDNA with ReverAid First Strand cDNA synthesis kit. SYBR Green PCR Master Mix kit was utilized for the real time PCR using a QuantStudio 3 PCR machine (Applied Biosystems, Waltham, MA). Primers used are detailed in Table 6. Each reaction was performed in triplicate for each primer with a no-template negative control. QuantStudio Design and Analysis Software 1.5.2 was used to analyze the data using the ΔΔCT method.

[4] = system: bleomycin-induced mouse skin fibrosis model; assay: Bleomycin-induced skin fibrosis model; assay type: in vivo; conditions: 4 weeks
Method: There is a paucity of animal models of GI tract fibrosis/strictures. Li et al., 2021. To obtain preliminary evidence regarding efficacy of Sul-NC as antifibrotic in vivo, a well-described and reproducible bleomycin-induced rodent skin fibrosis model was used. Yamamoto et al., 1999. To induce fibrosis, bleomycin was injected in mouse skin at five spots within a 1×1 cm region on the back every other day for four weeks (FIG. 3), as previously described. Yamamoto et al., 1999. […] In addition, the Masson's Trichrome staining confirmed that the thickness of the dermis was due to deposition of collagen and other ECM proteins (blue staining in the figure). Of note, there was a striking difference between the dose and frequency of administration when comparing pirfenidone (daily dosing, total dose 2,800 mg/kg) vs Sul-NC (once weekly, total dose 200 mg/kg).
5-8 week old male C57BL/6J mice were utilized for bleomycin induced skin fibrosis model. The upper back was shaved, and 100 μL bleomycin (0.5 mg/ml in PBS) was injected subcutaneously every other day into one of five sectors in a defined 1-cm^2 area (see FIG. 3). […] Five representative images for each mouse were taken to quantify skin dermal thickness. For each image, five different areas were measured by a masked observer with image J Fiji (NIH, Bethesda, MD). Data were analyzed with GraphPad Prism 9 (San Diego, CA, USA).

[5] = system: CCD-18Co cells; assay: RT-PCR of α-SMA (ACTA2) expression in activated CCD-18Co cells; assay type: cell-based, human
Method: as §1

[6] = physchem; assay type: physicochemical
[7] = mouse, in vivo, sc, 50 mg/kg
Method: Each treatment group contain 3-9 mice. […] MTD was injected and blood were taken for liver and kidney function test (Table 5).

[8] = topical dosing; cited from earlier work
[9] = in vivo; conditions: both, C57BL/6J, mouse, sc
[10] = system: CCD-18Co cells; assay: Western blot of α-SMA and COL1A1 in activated CCD-18Co cells; assay type: cell-based, human; conditions: 10 μM, 96 h
Method: (§2) LX2 and CCD-18Co were seeded in 6 well plate. Twenty-four hours later, cells were washed and starved with Alpha MEM medium without FBS for 24 h. The cells were then washed and the media was replaced with Alpha MEM supplemented with 10% FBS containing 5 ng/ml TGF-β and activated for 48 h. […] The cells were then washed three times with cold PBS and treated with protein lysis RIPA buffer with complete protease inhibitor cocktail. Protein concentration was determined with Pierce BCA protein Assay Kit. 20 μg of total protein lysate from each treatment group was loaded into each well of a Mini-Protean TGX gel (4-15%), and electrophoresis was performed using 1× Tris/Glycine/SDS Buffer. Proteins were then transferred to nitrocellulose membranes using 1× Tris/Glycine with methanol. Membranes were blocked with Intercept (TBS) blocking buffer for 1 h at room temperature and then incubated with anti-α-SMA antibody (1:1000), and COL1A1 antibody (1:1000) at 4° C. overnight. Membranes were washed with TBS-0.1% Tween three times for 10 min each, and then incubated in IRDye-Secondary antibodies (1:10,000) at room temperature for 1 h. The membranes were then washed with TBS-0.1% Tween three times for 10 min each and rinsed with 1×TBS to remove residual Tween20. Membranes were then scanned with an Odyssey Image System (Li-Cor, Lincoln, NE, USA).

[11] = system: C57BL/6J mice; conditions: both, mouse, in vivo; for Survival: ip
[12] = In vitro drug release under accelerated conditions (rapid equilibrium dialysis); assay type: physicochemical
Method: Sul-NC (5 mg/mL, 50 μL) were placed in a rapid equilibrium dialysis s(RED) device with an 8 kDa molecular weight cutoff (n=3). The outer reservoir was filled with 1 mL of 0.5% Tween 80 in phosphate buffered saline (PBS-T) solution. The samples were incubated on an orbital shaker with temperature control at 37° C. and 300 rpm. Every 24 h, 1 mL of the solution was collected and replenished with fresh 1 mL PBS-T solution. […] Mobile phase A was water containing 0.1% trifluoroacetic acid (TFA) and mobile phase B was acetonitrile containing 0.1% TFA. The isocratic flow was composed 70% of mobile phase A and 30% mobile phase B at 1 mL/min flow rate for 10 min. […] The drug amount was quantified and used to calculate the accumulation percentage. The release curves were plotted with GraphPad Prism 9 (San Diego, CA).

[13] = system: human hepatic stellate cells (LX2); assay: Western blot of α-SMA and COL1A1 in activated LX2 cells; assay type: cell-based; conditions: activated LX2, 10 μM, 96 h
Method: as §2

Structure (SMILES) | collagen layer thickness [1] [μm] | decrease in the staining of α-SMA and COL1A1 [2] | concentration below which no effect on ACTA2 expression was shown [3] [mM] | thickness of the dermis compared to Vehicle ([4]; daily oral 100 mg/kg) | concentration below which no effect on ACTA2 expression was shown [5] [mM] | solubility [6] [µg/mL] | blood level of ALT and BUN [7] | elimination via the feces [8] | thickness of the dermis compared to Vehicle ([4]; 10-mg/kg IP every other day) | MTD [9] [mg/kg] | protein production of α-SMA and COL1A1 (Western blot) [10] | dose resulting in reduced survival [11] [mg/kg] | Survival ([11]; 15 mg/kg) | Survival ([11]; 30 mg/kg) | Survival ([11]; 40 mg/kg) | passage of free drug through the dialysis membrane [12] | protein production of α-SMA and COL1A1 (Western blot) [13]
Cc1ccc(=O)n(-c2ccccc2)c1 [pirfenidone] | 9.1±0.3 | effective | 4 | significantly reduced | 4 | – | – | – | – | – | – | – | – | – | – | – | –
Clc1ccc(CSC(Cn2ccnc2)c2ccc(Cl)cc2Cl)cc1 (centres unmarked) [sulconazole] | – | – | – | – | – | 240 (≈ 603 µM) | increased | one of the primary clearance routes | significantly reduced | 50 | significantly reduced | 50 | 5/5 (100%) | 5/5 (100%) | 5/5 (100%) | not impeded by the dialysis membrane | significantly reduced
